The record followed here is ChEMBL document CHEMBL1201862, “PubChem BioAssay data set” (2004).

Test systems include HCC 2998; HCT-116; IGROV-1; MOLT-4; NCI-H226; OVCAR-3; OVCAR-4; OVCAR-5; SF-295; SF-539; SK-MEL-2; SNB-75; SR; TK-10; U-251; UACC-257; UACC-62; HCT-15; RXF 393.
Experiment in all cases: inhibition of tumour cell growth, NCI panel, 48 h

The structures appear in SMILES notation.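 Dose response: 5 concentrations. Exposure: 48 h. Format: 96-well plates. Endpoint: linear interpolation; highest concentration if not reached. GI50: concentration for 50% inhibition of growth.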 Active and inactive are the calls of the source. Rule as the data show it: active = GI50 up to about 1.1 µM and inactive = higher.

Turning to `Cn1cnc([N+](=O)[O-])c1Sc1nnc(C(F)(F)F)n1C`, the GI50 in the assay on HCC 2998 is 75.2 µM (inactive); in the assay on HCT-116, 16.3 µM (inactive); in the assay on IGROV-1 it was 40 µM (inactive); with MOLT-4, 15.2 µM (inactive); in the assay on NCI-H226 it was 24.9 µM (inactive); in the assay on OVCAR-3, 22 µM (inactive). Also, the GI50 in the assay with OVCAR-4 is 24.3 µM (inactive); in the assay on OVCAR-5, > 100 µM (inactive); with SF-295, > 100 µM (inactive); in the assay with SF-539, 20.5 µM (inactive); in the assay with SK-MEL-2, 21.9 µM (inactive); in the assay on SNB-75 it was 84.1 µM (inactive). The GI50 is 17.6 µM (inactive) in the assay with SR; 26.4 µM (inactive) in the assay on TK-10; 17.1 µM (inactive) in the assay with U-251; 17.3 µM (inactive) in the assay on UACC-257; 18 µM (inactive) in the assay on UACC-62.
For `O=C(O)C(CO)NC(=O)n1c2ccccc2c2ccccc21` (stereo not given), the GI50 is > 100 µM (inactive) with HCC 2998; > 100 µM (inactive) in the assay with HCT-116; above 100 µM with HCT-15; > 100 µM (inactive) in the assay on IGROV-1; > 100 µM (inactive) with MOLT-4; > 100 µM (inactive) with NCI-H226. The GI50 in the assay on OVCAR-3, in the assay with RXF 393, in the assay on SF-295, with SF-539, in the assay on SK-MEL-2 and in the assay with SR was > 100 µM (inactive) throughout. Further, the GI50 in the assay on TK-10, in the assay on UACC-257 and with UACC-62 was > 100 µM (inactive) in each case.
Consider `CCC(=O)CC(=O)CCC(=O)Nc1cc(C)ccc1C`, for which the GI50 is > 100 µM (inactive) in the assay with HCT-116; above 100 µM in the assay on HCT-15; > 100 µM (inactive) in the assay on IGROV-1; > 100 µM (inactive) in the assay with MOLT-4; > 100 µM (inactive) in the assay with OVCAR-3; > 100 µM (inactive) in the assay on RXF 393. Further, the GI50 in the assay with SF-295, in the assay on SF-539, with SK-MEL-2, with SNB-75, with SR and in the assay with TK-10 was > 100 µM (inactive) throughout. The GI50 in the assay with U-251 and with UACC-62 was > 100 µM (inactive) each time.
In the case of `c1ccc2c(c1)CCc1cc3cc4c(nc3nc1-2)-c1ccccc1CC4`, the GI50 was > 100 µM (inactive) in the assay on HCC 2998; > 100 µM (inactive) in the assay with HCT-116; above 100 µM with HCT-15; > 100 µM (inactive) in the assay on IGROV-1; > 100 µM (inactive) in the assay on MOLT-4; > 100 µM (inactive) in the assay on NCI-H226. Further, the GI50 with OVCAR-3 was > 100 µM (inactive); in the assay with RXF 393 it was 69.7 µM (inactive); with SF-295, > 100 µM (inactive); with SF-539 it was > 100 µM (inactive); in the assay on SNB-75 it was > 100 µM (inactive); in the assay on SR, > 100 µM (inactive). The GI50 in the assay with TK-10, with U-251, in the assay on UACC-257 and with UACC-62 was > 100 µM (inactive) each time.
On to `NCCCOc1ccc([N+](=O)[O-])cc1Cl`, for which the GI50 in the assay with HCC 2998 is > 100 µM (inactive); in the assay on HCT-116 it was > 100 µM (inactive); in the assay on HCT-15, above 100 µM; with IGROV-1 it was > 100 µM (inactive); in the assay with MOLT-4, > 100 µM (inactive); in the assay on NCI-H226, > 100 µM (inactive). Besides, the GI50 with OVCAR-3, in the assay with OVCAR-4, in the assay with OVCAR-5, in the assay on SF-295, with SF-539 and with SK-MEL-2 was > 100 µM (inactive) throughout. Besides, the GI50 with SNB-75 is 61.1 µM (inactive); in the assay with SR it was > 100 µM (inactive); with TK-10, > 100 µM (inactive); in the assay on U-251 it was > 100 µM (inactive); in the assay with UACC-257 it was > 100 µM (inactive); in the assay with UACC-62, > 100 µM (inactive).
